Structures can show the parent of a compound that is named as a salt.
Test: Solubility of terbinafine HCl in isopropyl alcohol
Format: physicochemical
Method: Terbinafine free base was prepared by adding 2.0 g of terbinafine HCl to 8.0 g of isopropyl alcohol (IPA) and 4.0 g Dowex Marathon A OH ion exchange resin. This resin exchanges OH^− for Cl^− and was washed with IPA prior to use. With the Cl^− removed from solution, the free base formed and the terbinafine went into solution within 5-10 minutes. (Terbinafine HCl is soluble in IPA up to 3.7%.) The reaction with the resin was run for 4 hours. Presence of the free base was confirmed by adding a drop of this IPA solution into water and measuring pH with a color strip. Adding the IPA solution caused the water pH to increase approximately one unit. The resin added OH^− to the solution, which reacted with H^+ and increased the water content. Excess water was removed by storing the terbinafine free base solution over molecular sieves for one week.

CN(C/C=C/C#CC(C)(C)C)Cc1cccc2ccccc12 [Terbinafine HCl, terbinafine HCl]
soluble in IPA up to: 3.7%
